Patent US9670486B2, “RNAi-based method of screening and characterizing drug combinations” (Massachusetts Institute of Technology, priority 2011, dated 2017)

Legend:
[1] = test system: Eμ-Myc;p19Arf−/− lymphoma cells; conditions: for single drug cell death: single drug concentration used in the 17AAG-CBL combination
[2] = test system: Eμ-Myc;p19Arf−/− lymphoma cells; assay: 8-shRNA signature (GFP competition) with probabilistic nearest neighbors and PCA analysis; type: cell-based, mouse; conditions: shDNAPKcs, LD80-90

In the case of `Nc1nc2c(c(=O)[nH]1)N(C=O)C(CNc1ccc(C(=O)N[C@@H](CCC(=O)O)C(=O)O)cc1)CN2` (stereo partly drawn) [leucovorin], the “effect on 5-FU action” value [1] is reported as “potentiated 5-FU action” and the cell death ([1]; leucovorin alone at 1 μM, lymphoma cells) is reported as “no cell death”.
With `COc1cccc2c1C(=O)c1c(O)c3c(c(O)c1C2=O)C[C@@](O)(C(=O)CO)C[C@@H]3O[C@H]1C[C@H](N)[C@H](O)[C@H](C)O1` [Dox, doxorubicin] the “effect of diminution of DNAPKcs levels on drug response” value [2] was “sensitivity”.
`C=CCNC1=C2C[C@@H](C)C[C@H](OC)[C@H](O)[C@@H](C)/C=C(\C)[C@H](OC(N)=O)[C@@H](OC)/C=C\C=C(/C)C(=O)NC(=CC1=O)C2=O` [17AAG] was tested, and the “single drug cell death” value [1] was roughly 20%.
In the case of `O=C(O)CCCc1ccc(N(CCCl)CCCl)cc1` [CBL, Chlorambucil], the “effect of diminution of DNAPKcs levels on drug response” value [2] is reported as “resistance” and the “single drug cell death” value [1] is reported as roughly 20%.
